Source: patent publication US11214803B2, “Modulators of YAP1 expression” (Ionis Pharmaceuticals, Inc., priority 2019, dated 2022)
Strand notation (5' to 3'): a small letter for the sugar, then the base; units joined by * are phosphorothioate-linked, units joined directly phosphodiester-linked; [ ] holds rarer units or linkages, { } end groups; capitals alone tell only the bases. e = 2'-O-(2-methoxyethyl) (MOE); k = constrained ethyl (cEt); [5mC] = 5-methylcytosine; d = 2'-deoxy (DNA); m = 2'-O-methyl

Test system: Yap1 mRNA
Test: Antisense inhibition of human Yap1 in SNU-449 cells by modified oligonucleotides, single dose (Example 5, RTS36584)
Type: cell-based
Protocol: Modified oligonucleotides with additional chemistry modifications were designed to target a Yap1 nucleic acid and were tested for their effect on Yap1 mRNA level in SNU-449 cells. The modified oligonucleotides were tested in a series of experiments that had similar culture conditions. Cultured SNU-449 cells at a density of 10,000 cells per well were treated using free uptake with 2,000 nM of modified oligonucleotide. After a treatment period of approximately 48 hours, RNA was isolated from the cells and Yap1 mRNA levels were measured by quantitative real-time RTPCR. Human primer probe set RTS36584 was used to measure mRNA levels. Yap1 mRNA levels were normalized to total RNA content, as measured by RIBOGREEN®. Results are presented in the tables below as percent control of the amount of Yap1 mRNA relative to untreated control cells (% UTC). The modified oligonucleotides with percent control values marked with an asterisk (*) target the amplicon region of the primer probe set. Additional assays may be used to measure the potency and efficacy of the modified oligonucleotides targeting the amplicon region.
Several different chemistry modifications were tested, which are specified in the Chemistry Notation column of the tables below, wherein the notation “d” refers to a 2′-deoxyribose sugar, the notation “s” refers to a phosphorothioate (P═S) internucleoside linkage, the notation “k” refers to a cEt modified sugar, the notation “y” refers to a 2′-O-methyl ribose sugar, the notation “e” refers to a MOE modified sugar, and the notation “^mC” refers to a 5-methylcytosine.
“Start site” indicates the 5′-most nucleoside to which the gapmer is targeted in the human gene sequence. “Stop site” indicates the 3′-most nucleoside to which the gapmer is targeted human gene sequence. […] Activity of the modified oligonucleotide may be defined in a different experiment.

[1] = Table 46, Yap1 mRNA as percent of untreated control, SNU-449 cells, single dose
[2] = Table 42 (separate experiment), SNU-449 cells, 10,000 cells per well, free uptake, 2,000 nM modified oligonucleotide, approximately 48 hours, RTS36584, normalized to RIBOGREEN, Yap1 mRNA relative to untreated control cells
[3] = Table 48, Yap1 mRNA level relative to untreated control, modified oligonucleotides targeting SEQ ID NO.: 1 and 2
[4] = Table 51, Yap1 mRNA remaining as percent of untreated control (UT), SNU-449 cells, single dose
[5] = Table 49, Yap1 mRNA level relative to untreated control, modified oligonucleotides targeting SEQ ID NO.: 1 and 2
[6] = Yap1 mRNA, percent of untreated control, modified oligonucleotides targeting SEQ ID NO: 1 and 2, Table 47
[7] = Table 45, Yap1 mRNA as percent of untreated control, SNU-449 cells, single dose
[8] = Table 52, Yap1 mRNA, modified oligonucleotides targeting SEQ ID NO: 1 and 2
[9] = Table 41, SNU-449 cells, 10,000 cells per well, free uptake, 2,000 nM modified oligonucleotide, approximately 48 hours, RTS36584, normalized to RIBOGREEN, Yap1 mRNA relative to untreated control cells
[10] = Table 50, Yap1 mRNA remaining as percent of untreated control (UT), SNU-449 cells, single dose

1198464 (antisense kA*kT*dA*dT*dG*dG*dA*dA*dA*dT*dT*eG*kT*e[5mC]*kT*e[5mC]) [Compound 1198464]
YAP1 (% UTC) (Table 43 experiment, SNU-449 cells, 10,000 cells per well, free uptake, 2,000 nM, approximately 48 hours, RTS36584, Yap1 mRNA normalized to RIBOGREEN, relative to untreated control cells): 41 % UTC

1198844 (kA*kT*dA*dG*dT*dG*d[5mC]*dT*dT*dT*dG*kG*eA*kA*eG*kA; antisense) [Compound 1198844]
YAP1 (% UT) [1]: 56 % UT

1198234 (kG*k[5mC]*dT*dT*dT*dG*dG*dA*dA*dG*dA*eT*e[5mC]*eT*kG*kA) [Compound 1198234]
YAP1 (% UTC) [2]: 45 % UTC

1198322 (kG*kT*kG*d[5mC]*dT*dT*dT*dG*dG*dA*dA*dG*kA*eT*k[5mC]*eT; antisense) [Compound 1198322]
YAP1 (% UT) [3]: 48 % UT

1200798 (kT*kA*kT*dT*dA*mG*dA*dG*dT*dA*dT*dG*dT*kG*kG*k[5mC]; antisense) [Compound 1200798]
YAP1 (% UT) [4]: 7 % UT

1198302 (kT*kA*kT*dA*dA*d[5mC]*dT*dG*dG*dG*d[5mC]*dA*kA*eA*kT*eT; antisense) [Compound 1198302]
YAP1 (% UT) [5]: 67 % UT

1197237 (antisense kT*kA*kT*dA*mA*d[5mC]*dT*dG*dG*dG*d[5mC]*dA*dA*kA*kT*kT) [Compound 1197237]
YAP1 (% UT) [4]: 74 % UT

1198421 (kT*dT*dA*dT*dA*dT*dG*dG*dT*dT*dT*kT*eG*kT*eG*kT; antisense) [Compound 1198421]
YAP1 (% UTC) (Table 39, SNU-449 cells, 10,000 cells per well, free uptake, 2,000 nM oligonucleotide, approx. 48 hours, RTS36584, normalized to RIBOGREEN, Yap1 mRNA relative to untreated control): 36 % UTC

1197207 (antisense kA*kA*kT*dA*dT*dT*dG*d[5mC]*dA*dA*dT*d[5mC]*dT*kG*kT*k[5mC]) [Compound 1197207]
YAP1 (% UT) [6]: 51 % UT

1095623 (antisense k[5mC]*kA*d[5mC]*dT*dG*dA*dG*dG*dT*dA*dT*eA*kA*e[5mC]*kT*eG) [Compound 1095623]
YAP1 (% UTC) (Table 44 experiment, SNU-449 cells, 10,000 cells per well, free uptake, 2,000 nM, approximately 48 hours, RTS36584, Yap1 mRNA normalized to RIBOGREEN, relative to untreated control cells): 57 % UTC

1198925 (k[5mC]*kT*dT*dT*dG*dG*dA*dA*dG*dA*dT*k[5mC]*dT*kG*dA*kA; antisense) [Compound 1198925]
YAP1 (% UTC) [7]: 52 % UTC

1198813 (antisense kA*kG*dT*dA*dT*dG*dT*dG*dG*d[5mC]*dA*kA*eT*kA*eA*kT) [Compound 1198813]
YAP1 (% UT) [1]: 55 % UT

1200854 (kT*kA*kT*dG*dT*mA*dA*dT*dA*dT*dT*dG*d[5mC]*kA*kA*kT; antisense) [Compound 1200854]
YAP1 (% UT) [8]: 91 % UT

1198789 (antisense kA*eA*kA*dG*dT*dG*dT*dA*dT*dG*dT*d[5mC]*eA*eG*kA*kA) [Compound 1198789]
YAP1 (% UTC) [9]: 22 % UTC

1198221 (kT*kT*dA*d[5mC]*dA*dT*dT*dA*dG*dG*dA*eA*e[5mC]*eA*kA*kG) [Compound 1198221]
YAP1 (% UTC) [2]: 95 % UTC

1197228 (antisense kA*kA*kT*dT*mG*dT*d[5mC]*dT*d[5mC]*dA*dT*dG*d[5mC]*k[5mC]*kT*kT) [Compound 1197228]
YAP1 (% UT) [10]: 25 % UT

1198575 (antisense kT*kT*kG*dG*dA*dA*dG*dA*dT*d[5mC]*dT*dG*kA*kA*kA*e[5mC]) [Compound 1198575]
YAP1 (% UT) [5]: 94 % UT

1198639 (kT*kA*dG*dA*dG*dT*dA*dT*dG*dT*dG*dG*k[5mC]*eA*kA*eT; antisense) [Compound 1198639]
YAP1 (% UTC) [9]: 32 % UTC

1198688 (antisense kA*kT*dA*dT*dT*dG*d[5mC]*dA*dA*dT*d[5mC]*dT*kG*eT*k[5mC]*eT) [Compound 1198688]
YAP1 (% UTC) [9]: 48 % UTC

1197236 (antisense kT*kA*kT*dT*mA*dG*dA*dG*dT*dA*dT*dG*dT*kG*kG*k[5mC]) [Compound 1197236]
YAP1 (% UT) [10]: 17 % UT

1198684 (antisense kA*kA*d[5mC]*dT*d[5mC]*dT*dT*dA*dT*dA*dT*dG*kG*eT*kT*eT) [Compound 1198684]
YAP1 (% UTC) [2]: 75 % UTC

1197218 (antisense kT*kT*kT*dA*dA*dA*dG*dT*dG*dT*dA*dT*dG*kT*k[5mC]*kA) [Compound 1197218]
YAP1 (% UT) [3]: 29 % UT

1197253 (antisense kA*kG*kT*dG*mC*dT*dT*dT*dG*dG*dA*dA*dG*kA*kT*k[5mC]) [Compound 1197253]
YAP1 (% UT) [4]: 58 % UT

1197287 (kT*kA*kT*dA*mU*dT*dA*dG*dA*dG*dT*dA*dT*kG*kT*kG) [Compound 1197287]
YAP1 (% UT) [10]: 108 % UT

1198774 (kA*eA*k[5mC]*dT*d[5mC]*dT*dT*dA*dT*dA*dT*dG*eG*eT*kT*kT; antisense) [Compound 1198774]
YAP1 (% UTC) [9]: 106 % UTC

1200794 (kA*kG*kA*dG*dT*mA*dT*dG*dT*dG*dG*d[5mC]*dA*kA*kT*kA; antisense) [Compound 1200794]
YAP1 (% UT) [4]: 18 % UT

1198910 (kA*kG*dG*dT*dA*dT*dA*dA*d[5mC]*dT*dG*kG*dG*k[5mC]*dA*kA; antisense) [Compound 1198910]
YAP1 (% UTC) [7]: 40 % UTC

1198938 (kT*k[5mC]*dA*dG*dA*dT*dT*dT*dA*dG*dG*kA*dT*kG*d[5mC]*kA; antisense) [Compound 1198938]
YAP1 (% UTC) [7]: 59 % UTC

1198839 (k[5mC]*kT*dT*dT*dG*dG*dA*dA*dG*dA*dT*k[5mC]*eT*kG*eA*kA; antisense) [Compound 1198839]
YAP1 (% UT) [1]: 36 % UT

1198327 (kT*kT*kT*dA*dG*dG*dA*dT*dG*d[5mC]*dA*dT*kG*eG*kT*eT; antisense) [Compound 1198327]
YAP1 (% UT) [3]: 29 % UT

1198772 (k[5mC]*eT*k[5mC]*dT*dT*dA*dT*dA*dT*dG*dG*dT*eT*eT*kT*kG; antisense) [Compound 1198772]
YAP1 (% UTC) [9]: 41 % UTC

1198621 (kA*kA*kG*dT*dA*dA*dG*dG*dT*dT*dT*d[5mC]*k[5mC]*k[5mC]*kA*eG; antisense) [Compound 1198621]
YAP1 (% UT) [10]: 80 % UT

1198338 (k[5mC]*kT*k[5mC]*dT*dT*dA*dT*dA*dT*dG*dG*dT*kT*eT*kT*eG; antisense) [Compound 1198338]
YAP1 (% UT) [5]: 24 % UT

1200814 (kA*k[5mC]*kT*dT*dT*mU*dA*d[5mC]*dA*dT*dT*dA*dG*kG*kA*kA; antisense) [Compound 1200814]
YAP1 (% UT) [8]: 73 % UT

1197238 (antisense kA*kG*kG*dT*mA*dT*dA*dA*d[5mC]*dT*dG*dG*dG*k[5mC]*kA*kA) [Compound 1197238]
YAP1 (% UT) [4]: 43 % UT

1197221 (antisense kA*kG*kT*dA*dA*dG*dG*dT*dT*dT*d[5mC]*d[5mC]*d[5mC]*kA*kG*kA) [Compound 1197221]
YAP1 (% UT) [6]: 42 % UT

1198656 (kG*k[5mC]*dA*d[5mC]*dT*dT*dT*dT*dA*d[5mC]*dA*dT*kT*eA*kG*eG; antisense) [Compound 1198656]
YAP1 (% UTC) [9]: 11 % UTC

1198718 (kG*eA*kA*dA*dT*dT*dG*dT*d[5mC]*dT*d[5mC]*dA*eT*eG*k[5mC]*k[5mC]; antisense) [Compound 1198718]
YAP1 (% UTC) (Table 40 (separate experiment), SNU-449 cells, 10,000 cells per well, free uptake, 2,000 nM oligonucleotide, approx. 48 hours, RTS36584, normalized to RIBOGREEN, Yap1 mRNA relative to untreated control): 9 % UTC

1198552 (antisense kA*kG*kA*dG*dT*dA*dT*dG*dT*dG*dG*d[5mC]*kA*kA*kT*eA) [Compound 1198552]
YAP1 (% UT) [5]: 17 % UT

1198709 (k[5mC]*kT*dA*dA*dG*dT*dA*dA*dG*dG*dT*dT*kT*e[5mC]*k[5mC]*e[5mC]; antisense) [Compound 1198709]
YAP1 (% UTC) [2]: 29 % UTC

1197233 (antisense kT*kA*kG*dA*mG*dT*dA*dT*dG*dT*dG*dG*d[5mC]*kA*kA*kT) [Compound 1197233]
YAP1 (% UT) [10]: 36 % UT

1095407 (antisense kA*k[5mC]*dT*dG*dA*dG*dG*dT*dA*dT*dA*kA*e[5mC]*kT*eG*kG) [Compound 1095407]
YAP1 (% UT) [1]: 54 % UT
